For 20 compounds, T/C results are on record in PubChem BioAssay AID248 (DTP/NCI, 2004).

“And” between values parts separate entries of the source, which are not always exact repeats. Equal entries are not always repeated. Inconclusive results and toxic doses are left out.

The test has as its system L1210 leukemia ip in BDF1 mice, survival T/C. Nature of the test: NCI In Vivo Anticancer Drug Screen. Data for tumor model L1210 Leukemia (intraperitoneal) in B6D2F1 (BDF1) mice. Conditions: endpoint: mean survival time, higher = longer survival. The method in brief: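 Each compound was tested against a transplantable tumor grown in mice. The endpoint was survival, with treated animals benchmarked against vehicle controls as a simple ratio.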

Setting [1] is: dose: 50.0 mg/kg/injection, schedule: Q01DX001 (ip), vehicle: saline.
Where [2] appears, read: dose: 100.0 mg/kg/injection, schedule: Q01DX001 (ip), vehicle: saline.
[3] abbreviates: dose: 200.0 mg/kg/injection, schedule: Q01DX001 (ip), vehicle: saline.
The mark [4] stands for this setting: dose: 400.0 mg/kg/injection, schedule: Q01DX001 (ip), vehicle: saline.
The mark [5] stands for this setting: dose: 100.0 mg/kg/injection, schedule: Q01DX001 (ip), vehicle: carboxymethylcellulose (CMC).
Setting [6] is: dose: 100.0 mg/kg/injection, schedule: Q04DX003 (ip), vehicle: saline with Tween-80.
Where [7] appears, read: dose: 200.0 mg/kg/injection, schedule: Q01DX001 (ip), vehicle: carboxymethylcellulose (CMC).
Where [8] appears, read: dose: 200.0 mg/kg/injection, schedule: Q04DX003 (ip), vehicle: saline with Tween-80.
Where [9] appears, read: dose: 100.0 mg/kg/injection, schedule: Q04DX003 (ip), vehicle: Klucel (hydroxypropylcellulose) (HPC).
[10] abbreviates: dose: 200.0 mg/kg/injection, schedule: Q04DX003 (ip), vehicle: Klucel (hydroxypropylcellulose) (HPC).
Setting [11] is: dose: 400.0 mg/kg/injection, schedule: Q04DX003 (ip), vehicle: Klucel (hydroxypropylcellulose) (HPC).
Where [12] appears, read: dose: 100.0 mg/kg/injection, schedule: Q01DX001 (ip), vehicle: Klucel (hydroxypropylcellulose) (HPC).
Where [13] appears, read: dose: 200.0 mg/kg/injection, schedule: Q01DX001 (ip), vehicle: Klucel (hydroxypropylcellulose) (HPC).

For `CS(=O)(=O)OCCN(CCOS(C)(=O)=O)c1ccc(/C=N/Nc2ncnc3nc[nH]c23)cc1`, the T/C is, setting by setting: (dose: 12.5 mg/kg/injection, schedule: Q01DX009 (ip), vehicle: saline) 124 % of control; under setting [1], 119 % of control; (dose: 89.0 mg/kg/injection, schedule: Q01DX001 (ip), vehicle: other) 105 % of control; under setting [2], 107 % of control; (dose: 100.0 mg/kg/injection, schedule: Q01DX009 (ip), vehicle: saline) 98 % of control; (dose: 133.0 mg/kg/injection, schedule: Q01DX001 (ip), vehicle: other) 110 % of control. The T/C was 103 % of control (dose: 200.0 mg/kg/injection, schedule: Q01DX001 (ip), vehicle: other); 119 % of control under setting [3]; 114 % of control (dose: 300.0 mg/kg/injection, schedule: Q01DX001 (ip), vehicle: other); 113 % of control under setting [4].
Consider `O=[N+]([O-])c1ccc2cccnc2c1`, for which the T/C reads like this: (dose: 75.0 mg/kg/injection, schedule: Q01DX001 (ip), vehicle: carboxymethylcellulose (CMC)) 106 % of control; (dose: 150.0 mg/kg/injection, schedule: Q01DX001 (ip), vehicle: carboxymethylcellulose (CMC)) 104 % of control; (dose: 300.0 mg/kg/injection, schedule: Q01DX001 (ip), vehicle: carboxymethylcellulose (CMC)) 101 % of control.
In the case of `CC(C)OC(=O)Nc1ccc(Br)cc1`, the T/C runs as follows: (dose: 100.0 mg/kg/injection, schedule: Q04DX002 (ip), vehicle: Klucel (hydroxypropylcellulose) (HPC)) 88 % of control; (dose: 200.0 mg/kg/injection, schedule: Q04DX002 (ip), vehicle: Klucel (hydroxypropylcellulose) (HPC)) 95 % of control.
In the case of `CN1Cc2c(ccc3c2OCO3)[C@@H]2[C@H](O)Cc3cc4c(cc3[C@@H]21)OCO4`, the T/C (dose: 50.0 mg/kg/injection, schedule: Q01DX Z (ip), vehicle: carboxymethylcellulose (CMC)) is 102 % of control; the T/C (dose: 75.0 mg/kg/injection, schedule: Q01DX Z (ip), vehicle: carboxymethylcellulose (CMC)) was 108 % of control; the T/C under setting [5] is 102 % of control; the T/C (dose: 100.0 mg/kg/injection, schedule: Q01DX Z (ip), vehicle: carboxymethylcellulose (CMC)) is 102 % of control; the T/C under setting [6] was 101 % of control; the T/C (dose: 180.0 mg/kg/injection, schedule: Q04DX003 (ip), vehicle: Klucel (hydroxypropylcellulose) (HPC)) was 111 % of control. The T/C was 113 % of control under setting [7]; 101 % of control under setting [8]; 98 % of control (dose: 266.0 mg/kg/injection, schedule: Q04DX003 (ip), vehicle: Klucel (hydroxypropylcellulose) (HPC)); 105 % of control (dose: 266.0 mg/kg/injection, schedule: Q04DX003 (ip), vehicle: saline); 98 % of control (dose: 300.0 mg/kg/injection, schedule: Q01DX Z (ip), vehicle: carboxymethylcellulose (CMC)); 102 % of control (dose: 400.0 mg/kg/injection, schedule: Q01DX001 (ip), vehicle: carboxymethylcellulose (CMC)). Besides, the T/C by setting is: (dose: 400.0 mg/kg/injection, schedule: Q04DX003 (ip), vehicle: saline with Tween-80) 165 % of control; (dose: 400.0 mg/kg/injection, schedule: Q04DX003 (ip), vehicle: saline) 111 % of control; (dose: 600.0 mg/kg/injection, schedule: Q04DX003 (ip), vehicle: Klucel (hydroxypropylcellulose) (HPC)) 157 % of control.
As for `O=[N+]([O-])c1cccc([I+]c2cccc([N+](=O)[O-])c2)c1`, the T/C was 100 % of control (dose: 100.0 mg/kg/injection, schedule: Q04DX002 (ip), vehicle: saline with Tween-80); 96 % of control under setting [9]; 92 % of control (dose: 200.0 mg/kg/injection, schedule: Q04DX002 (ip), vehicle: saline with Tween-80); 104 % of control under setting [10]; 100 % of control (dose: 400.0 mg/kg/injection, schedule: Q04DX002 (ip), vehicle: saline with Tween-80); 91 % of control under setting [11].
Consider `COc1ccc(C)cc1NC(=O)OCCOc1cc(C)c(Cl)c(C)c1`, for which the T/C was 90 % of control (dose: 50.0 mg/kg/injection, schedule: Q01DX009 (ip), vehicle: saline with Tween-80); 87 % of control (dose: 100.0 mg/kg/injection, schedule: Q01DX009 (ip), vehicle: saline with Tween-80); 87 % of control (dose: 200.0 mg/kg/injection, schedule: Q01DX009 (ip), vehicle: saline with Tween-80).
`CCOC(=O)C(CC(OCC)OCC)C1=NC(C)(C)CC(C)O1` (stereo not drawn): the T/C reads like this: under setting [12], 105 % of control; under setting [13], 89 % of control; (dose: 400.0 mg/kg/injection, schedule: Q01DX001 (ip), vehicle: Klucel (hydroxypropylcellulose) (HPC)) 100 % of control.
As for `CC(CCl)OC(=O)CCO` (stereo not drawn), the T/C by setting is: (dose: 55.0 mg/kg/injection, schedule: Q01DX Z (ip), vehicle: methylcellulose (MC)) 104 % of control; (dose: 83.0 mg/kg/injection, schedule: Q01DX Z (ip), vehicle: methylcellulose (MC)) 100 % of control; (dose: 125.0 mg/kg/injection, schedule: Q01DX Z (ip), vehicle: methylcellulose (MC)) 89 % of control.
Turning to `COC(=O)C#CC(=O)OC`, the T/C runs as follows: (dose: 3.13 mg/kg/injection, schedule: Q04DX003 (ip), vehicle: Klucel (hydroxypropylcellulose) (HPC)) 101 % of control; (dose: 6.25 mg/kg/injection, schedule: Q04DX003 (ip), vehicle: Klucel (hydroxypropylcellulose) (HPC)) 99 % of control; (dose: 12.5 mg/kg/injection, schedule: Q04DX003 (ip), vehicle: Klucel (hydroxypropylcellulose) (HPC)) 111 % of control.
Take `O=CC(S)CO` (stereo not drawn): the T/C reads like this: under setting [3], 103 % of control; under setting [4], 97 % of control; (dose: 800.0 mg/kg/injection, schedule: Q01DX001 (ip), vehicle: saline) 108 % of control.
`CC(C)c1cccc(O)c(=O)c1`: the T/C runs as follows: under setting [6], 95 % of control; under setting [8], 103 % of control.
On to `CC(O)(C#N)C(F)(F)F` (stereo not drawn), for which the T/C was 102 % of control (dose: 75.0 mg/kg/injection, schedule: Q01DX001 (ip), vehicle: saline); 91 % of control (dose: 150.0 mg/kg/injection, schedule: Q01DX001 (ip), vehicle: saline); 105 % of control (dose: 300.0 mg/kg/injection, schedule: Q01DX001 (ip), vehicle: saline).
`CC12CCC3c4ccccc4CCC3(CO1)C2` (stereo not drawn): the T/C by setting is: (dose: 100.0 mg/kg/injection, schedule: Q01DX009 (ip), vehicle: Klucel (hydroxypropylcellulose) (HPC)) 105 % of control; under setting [9], 95 % of control; (dose: 200.0 mg/kg/injection, schedule: Q01DX009 (ip), vehicle: Klucel (hydroxypropylcellulose) (HPC)) 105 % of control; under setting [10], 106 % of control; (dose: 400.0 mg/kg/injection, schedule: Q01DX009 (ip), vehicle: Klucel (hydroxypropylcellulose) (HPC)) 104 % of control; under setting [11], 95 % of control.
Consider `CN(C)C(=O)NNC(=O)c1ccc(Cl)cc1`, for which the T/C under setting [6] is 100 % of control and the T/C under setting [8] was 95 % of control.
With `Cn1c(=O)[nH]c(=O)c2[nH]c(CO)nc21`, the T/C is 100 % of control under setting [5] and 102 % of control under setting [7].
Turning to `CC(=O)NC(C)(S)C(=O)O` (stereo not drawn), the T/C reads like this: under setting [2], 103 % of control; under setting [3], 96 % of control; under setting [4], 107 % of control.
Take `NC(=S)N/N=C\c1cc2ccccc2c2ccccc12`: the T/C is 95 % of control under setting [1], 95 % of control under setting [2], 95 % of control under setting [3] and 98 % of control under setting [4].
Turning to `CON(C)CCO`, the T/C is, setting by setting: (dose: 25.0 mg/kg/injection, schedule: Q01DX001 (ip), vehicle: Klucel (hydroxypropylcellulose) (HPC)) 107 % of control; (dose: 50.0 mg/kg/injection, schedule: Q01DX001 (ip), vehicle: Klucel (hydroxypropylcellulose) (HPC)) 107 % of control; under setting [12], 105 % of control and 107 % of control; under setting [13], 102 % of control.
For the compound `CC(C)C(C)(O)C#N` (stereo not drawn), the T/C reads like this: (dose: 5.0 mg/kg/injection, schedule: Q01DX001 (ip), vehicle: saline) 92 % of control; (dose: 10.0 mg/kg/injection, schedule: Q01DX001 (ip), vehicle: saline) 97 % of control; (dose: 20.0 mg/kg/injection, schedule: Q01DX001 (ip), vehicle: saline) 100 % of control.
Turning to `CC(=O)Nc1ccc(NCN2C(=O)c3ccccc3C2=O)cc1`, the T/C by setting is: under setting [9], 100 % of control; under setting [10], 97 % of control; under setting [11], 97 % of control.
